Patent US10829796B2, “Bacteria identification and antimicrobial susceptibility test” (priority 2015, dated 2020)

Tested on: bacteria in clinical bovine mastitis milk samples
Assay: Combined bacteria identification and antimicrobial susceptibility test (colour of wells, MIC) on clinical bovine mastitis milk samples
Type: cell-based
Description: Clinical bovine mastitis milk samples were collected by a vet clinic in South Island, New Zealand. Samples were stored in the freezer for several months and shipped frozen to the testing facility. In this Example, the term “clinical” means that dairy cows had clinical symptoms of an udder infection e.g. cow behaved unusual, milk clots, swollen udder among other typical symptoms. Testing was executed in microwell plate comprising of 24 wells (3×8 wells).
In addition, 20 ul of clinical mastitis sample was added to each well with a laboratory pipette.
(§1) Abbreviations • 1. 80 ul GC+10 ul Tell: 80 ul Giolitti Cantoni base broth+10 ul Tellurite solution (1%); • 2. 80 ul TSB/Esc/Fer Cit: 80 ul Tryptic soy broth containing 0.25% Esculin and 0.125% Ammonium Ferric Citrate; • 3. 80 ul TSB/Esc/Fer Cit+10 ul Genta: 80 ul Tryptic soy broth containing 0.25% Esculin and 0.125% Ammonium Ferric Citrate+10 ul of Gentamycin solution 10 mg/ml; • 4. 80 ul McC/PR25: 80 ul MacConkey broth (single strength) containing 0.0125% phenol red; and • 5. 80 ul TSB/PR25: 80 ul Tryptic soy broth containing 0.0125% phenol red. Bacteria Identification
Columns A to C and rows 1 and 2 were used for bacteria identification. A1: coagulase positive Staph; A2: Staphylococci; B1: Strep group D; B2: Strep group D; C1: general enrichment media (gram+ and gram-bacteria); C2: coliform bacteria.
Column A3 to A8: serial dilution of benzyl penicillin as potassium. Column B3 to B8: serial dilution of ceftiofur as hydrochloride. Column C3 to C8: serial dilution of cloxacillin as sodium. Antibiotic concentrations are listed as free form ranging between 4 ug/ml to 0.05 ug/ml.
Minimum inhibitory substance concentration (MIC) is here defined as the concentration if a colour change occurs between two wells (one well remains red with drug concentration 1, the other one yellow with drug concentration 2, whereas drug concentration 1 is larger than drug concentration 2) then the MIC is the value of drug concentration 1.
Table 21 indicates the microwell plate configuration #1; Drugs: Benzylpenicillin as potassium; Cloxacillin as sodium; Ceftiofur as hydrochloride; Drug concentration in each well (A3 to C8) is based on 80 μl composition+10 μl drug solution+20 μl clinical mastitis milk sample and equivalent to listed drug concentration in μg/ml; 20 ul of clinical bovine mastitis milk sample was added to each well (A1 to C8).
In addition, each well received one drop of clinical sample from a transfer pipette which was on average about 35 mg. This was determined through weighing the well plate prior and after the addition of clinical mastitis samples. This weight was then divided by 24.
as §1, with “•” for “Abbreviations •”, “red.” for “red. Bacteria Identification”
Columns A to C and rows 1 and 2 were used for bacteria identification. A1: coagulase positive Staph; A2: Staphylococci; B1: Strep Group D; B2: -; C1: general enrichment media (gram+ and gram-); C2: coliform bacteria.
Column A3 to A8: serial dilution of benzyl penicillin as potassium. Drug concentrations given as free form ranging between 4 ug/ml to 0.05 ug/ml. Column B3 to B8: serial dilution of ceftiofur as hydrochloride. Drug concentrations given as free form ranging between 4 ug/ml to 0.05 ug/ml. Column C3 to C8: serial dilution of cloxacillin as sodium. Drug concentrations given as free form ranging between 4 ug/ml to 0.05 ug/ml.

## CO/N=C(\C(=O)N[C@@H]1C(=O)N2C(C(=O)O)=C(CSC(=O)c3ccco3)CS[C@H]12)c1csc(N)n1 [ceftiofur]
ID 1, T = 22 h, 37° C., plate configuration #1, drug 0.05 μg/ml
  Colour of media in each well: yellow
ID 1, T = 22 h, 37° C., plate configuration #1, drug 0.1 μg/ml
  Colour of media in each well: yellow
ID 1, T = 22 h, 37° C., plate configuration #1, drug 0.5 μg/ml
  Colour of media in each well: red
ID 1, T = 22 h, 37° C., plate configuration #1, drug 1 μg/ml
  Colour of media in each well: red
ID 1, T = 22 h, 37° C., plate configuration #1, drug 2 μg/ml
  Colour of media in each well: red
ID 1, T = 22 h, 37° C., plate configuration #1, drug 4 μg/ml
  Colour of media in each well: red
ID 2, T = 48 h, 37° C., plate configuration #1, drug 0.05 μg/ml
  Colour of media in each well: yellow
ID 2, T = 48 h, 37° C., plate configuration #1, drug 0.1 μg/ml
  Colour of media in each well: yellow
ID 2, T = 48 h, 37° C., plate configuration #1, drug 0.5 μg/ml
  Colour of media in each well: yellow
ID 2, T = 48 h, 37° C., plate configuration #1, drug 1 μg/ml
  Colour of media in each well: red
ID 2, T = 48 h, 37° C., plate configuration #1, drug 2 μg/ml
  Colour of media in each well: red
ID 2, T = 48 h, 37° C., plate configuration #1, drug 4 μg/ml
  Colour of media in each well: red
ID 3, T = 22 h, 37° C., plate configuration #1, drug 0.05 μg/ml
  Colour of media in each well: red
ID 3, T = 22 h, 37° C., plate configuration #1, drug 0.1 μg/ml
  Colour of media in each well: yellow
ID 3, T = 22 h, 37° C., plate configuration #1, drug 0.5 μg/ml
  Colour of media in each well: yellow
ID 3, T = 22 h, 37° C., plate configuration #1, drug 1 μg/ml
  Colour of media in each well: red
ID 3, T = 22 h, 37° C., plate configuration #1, drug 2 μg/ml
  Colour of media in each well: red
ID 3, T = 22 h, 37° C., plate configuration #1, drug 4 μg/ml
  Colour of media in each well: red
ID 3, T = 23 h, 37° C., Table 34, drug 0.05 μg/ml
  Colour of media in each well: red
ID 3, T = 23 h, 37° C., Table 34, drug 0.1 μg/ml
  Colour of media in each well: yellow
ID 3, T = 23 h, 37° C., Table 34, drug 0.5 μg/ml
  Colour of media in each well: yellow
ID 3, T = 23 h, 37° C., Table 34, drug 1 μg/ml
  Colour of media in each well: red
ID 3, T = 23 h, 37° C., Table 34, drug 2 μg/ml
  Colour of media in each well: red
ID 3, T = 23 h, 37° C., Table 34, drug 4 μg/ml
  Colour of media in each well: red
ID 3, T~7 h, 37° C., Table 34, drug 0.05 μg/ml
  Colour of media in each well: red
ID 3, T~7 h, 37° C., Table 34, drug 0.1 μg/ml
  Colour of media in each well: red
ID 3, T~7 h, 37° C., Table 34, drug 0.5 μg/ml
  Colour of media in each well: red
ID 3, T~7 h, 37° C., Table 34, drug 1 μg/ml
  Colour of media in each well: red
ID 3, T~7 h, 37° C., Table 34, drug 2 μg/ml
  Colour of media in each well: red
ID 3, T~7 h, 37° C., Table 34, drug 4 μg/ml
  Colour of media in each well: red
ID 3, T~11 h, 37° C., Table 34, drug 0.05 μg/ml
  Colour of media in each well: red
ID 3, T~11 h, 37° C., Table 34, drug 0.1 μg/ml
  Colour of media in each well: red
ID 3, T~11 h, 37° C., Table 34, drug 0.5 μg/ml
  Colour of media in each well: red
ID 3, T~11 h, 37° C., Table 34, drug 1 μg/ml
  Colour of media in each well: red
ID 3, T~11 h, 37° C., Table 34, drug 2 μg/ml
  Colour of media in each well: red
ID 3, T~11 h, 37° C., Table 34, drug 4 μg/ml
  Colour of media in each well: red
ID 4, T = 22 h, 37° C., plate configuration #1, drug 0.05 μg/ml
  Colour of media in each well: yellow
ID 4, T = 22 h, 37° C., plate configuration #1, drug 0.1 μg/ml
  Colour of media in each well: yellow
ID 4, T = 22 h, 37° C., plate configuration #1, drug 0.5 μg/ml
  Colour of media in each well: orange
ID 4, T = 22 h, 37° C., plate configuration #1, drug 1 μg/ml
  Colour of media in each well: red
ID 4, T = 22 h, 37° C., plate configuration #1, drug 2 μg/ml
  Colour of media in each well: red
ID 4, T = 22 h, 37° C., plate configuration #1, drug 4 μg/ml
  Colour of media in each well: red
ID 5, T = 23 h, 37° C., plate configuration #2, drug 0.05 μg/ml
  Colour of media in each well: yellow
ID 5, T = 23 h, 37° C., plate configuration #2, drug 0.1 μg/ml
  Colour of media in each well: yellow
ID 5, T = 23 h, 37° C., plate configuration #2, drug 0.5 μg/ml
  Colour of media in each well: red
ID 5, T = 23 h, 37° C., plate configuration #2, drug 1 μg/ml
  Colour of media in each well: red
ID 5, T = 23 h, 37° C., plate configuration #2, drug 2 μg/ml
  Colour of media in each well: red
ID 5, T = 23 h, 37° C., plate configuration #2, drug 4 μg/ml
  Colour of media in each well: red
ID 5 to 8, T = 0 h (prior incubation, reference), plate configuration #2, drug 0.05 μg/ml
  Colour of media in each well: red
ID 5 to 8, T = 0 h (prior incubation, reference), plate configuration #2, drug 0.1 μg/ml
  Colour of media in each well: red
ID 5 to 8, T = 0 h (prior incubation, reference), plate configuration #2, drug 0.5 μg/ml
  Colour of media in each well: red
ID 5 to 8, T = 0 h (prior incubation, reference), plate configuration #2, drug 1 μg/ml
  Colour of media in each well: red
